SMILES strings stand for the structures. “Also recorded” adds a separate entry of the source. Structures can show the parent of a compound that is named as a salt. Where two headings read alike, the source gives them in different places.

The text below walks through data of patent US11154550B2, “Treatment for neurodegeneration” (The University of Birmingham, priority 2012, dated 2021).

Experiment [1] concerns C7, KD2 and KD3 cell lines (SK-N-AS derived). Put plainly: Apoptotic fraction in p21 positive versus p21 negative cells of drug-treated C7, KD2 and KD3 cultures. It is filed as cell-based, human. How it is done: (§1) The data exported and quantified included separately all cells and single cells. Single cells were further subcategorised into euploid, apoptotic and polyploid cells. Euploid cells were additionally classified into cells in G1 S and G2M phases of the cell cycle.
The total fluorescence intensity from the 1° channel was used to compare total protein levels in the different cell populations defined above. Mean fluorescence intensity per cell (for the whole of the population) and mean fluorescence intensity per cell (for positive cells only) were analysed separately. Additionally the proportion of positive cells in each population was calculated.

Experiment [2] shares this test system. Put plainly: Cell cycle analysis (propidium iodide DNA content cytometry) in drug-treated C7, KD2 and KD3 cells. It is filed as cell-based, human. The conditions noted are these: 24 hours, up to 100 μM. The procedure: The C7 cell suspension were poured into sterile reagent reservoir labelled C7 and using multichannel pipette, 50 μl of cell suspension were dispense into each well. Then 50 μl of 2× culture media was added into each well. Plating was repeated for KD2 and KD3 cell lines. One plate of ‘zero day control’ was also prepared per experiment. On ‘zero day control’ plate, C7 cell line were plated into columns 1, 2, 7 and 8; KD2 cell line were plated into columns 3, 4, 9 and 10; KD3 cell line were plated into columns 5, 6, 11 and 12. Cells were plated at the same density for both ‘zero day control’ and experiment plates. The ‘zero day control’ plate remains untreated and is to be harvested just before the drugs were added into the treatment plates.
For each drug, 2× working solutions are prepared in culture medium and added to the cultures. The highest drug concentration is 100 μM and final solvent (H2O/DMSO) concentration in the cultures is 1%.
Using an 8-multichannel pipetor, 100 μl of 2× final drug concentrations were gently dispensed into the culture plates of C7, KD2 and KD3 cells. The time of the treatment was noted and cells were transferred back into 37° C./5% CO2 humidified incubator and were incubated for 24 hours.
The propidium iodide staining was used to determine the cell cycle phase of the cells based on DNA content.
To determine cut-offs for cells in different phases of the cell cycle, gate setting was performed based on the G1 and G2 peaks on the DNA content histogram. To determine the G1 and G2 peaks, the 3° total intensity in 20% histograms was analysed for each plate. Gates calculated were manually entered into the Acumen software.
as §1

In the next experiment the test system is p21cip1. As to the kind of experiment: p21cip1 immunostaining and cytometry in drug-treated C7, KD2 and KD3 cells. The class given is cell-based, human. The procedure:
BSA was removed from the plates after 30 minutes incubation. To C7, KD2 and KD3 plates, 50 μl of primary antibody (p21; Abcam ab7903; 1/1000 in PBST) solution was added to each well. On ‘zero day control’ plate, 50 μl of the primary antibody was added to columns 1-6 while columns 7-12 received only 50 μl PBST on each well. These (columns 7-12) serve as a negative controls and will received secondary antibody only. Plates were then wrapped in cling film and were incubated at +4° C. overnight. The following day, p21 primary antibody solution was removed from the plates and cells were washed by adding 200 μl of PBST. This was repeated once (total of 2 washes) and all plates were then subjected to secondary antibody treatment. Secondary antibody solution was made using am IgG-FITC (Abcam ab6785; 1/200 in PBST) and 50 μl was added to each well. Plates were then wrapped in aluminium foil to protect from light and were incubated at +4° C. for 2 hours. The immunostaining was used to measure the content of p21^cip1 in the cells. Measurement was carried out using a laser triggering the 1° channel (bandpass filter 500-530 nm). The total fluorescence intensity from the 1° channel was used to compare total protein levels in the different cell populations defined above. Mean fluorescence intensity per cell (for the whole of the population) and mean fluorescence intensity per cell (for positive cells only) were analysed separately. Additionally the proportion of positive cells in each population was calculated.

The test system of experiment [3] is Human SHSY-5Y neuroblastoma cells. As to the kind of experiment: High content cytometry apoptosis assay in drug-treated SHSY-5Y cells. It is filed as cell-based. Particulars: 24 hours; for cell death: up to 200 microM. The procedure: (§2) Human SHSY-5Y neuroblastoma cells were grown in DMEM:F12 supplemented with 10% FCS, penicillin (100 units/mil), streptomycin (100 μg/ml) and L-glutamine. The cells were plated for 24 hours into 96 well plates (5000 cells per well) before treatment with drugs. Each drug (doses applied in separate figures) and the control (DMSO) were applied to 8 technical replicate wells. After 24 hours treatment the cells were harvested by fixation in Glyofix and were post-fixed with ice cold 85% ethanol.
(§3) For P21^cip staining, the alcohol was aspirated and replaced with 100 μl/well blocking solution (5% BSA in PBST [1:1000 Triton X]) and incubated for 30 minutes at room temperature. After aspirating the blocking solution, 50 μl/well primary antibody solution (monoclonal P21 Abcam, 1:1000 in PBST) was added and incubated over night at 4° C. and PBST was applied as negative control. The next day, the cells were washed by twice aspirating 200 μl/well PBST. Afterwards, 50 μl/well secondary antibody solution (Anti-mouse IgG-FITC, Abcam, 1:200 in PBST) was added, protecting the solutions and plates from light, and incubated overnight at +4° C. The next day, the cells were washed twice with 200 μl/well PBST and stained with propidium iodide solution. […]. The composition of the propidium iodide staining solution was 0.1% Triton-X-100, […] propidium iodide, […] RNase A in PBS. The cells were incubated with the staining solution for 25 minutes at 37° C., and then DNA content based on total fluorescence was measured with a High Content Cytometer (Acumen). This allows rapid analysis of whole 96 well plates with resolution equivalent to a 20× microscope objective. The measurement of p21 content of cells and nuclei was based on the direct measurement of fluorescent intensity.

Another experiment relates to p21. As to the kind of experiment: p21 fluorescent immunocytochemistry followed by high content cytometry in drug-treated SHSY-5Y cells. It is filed as cell-based, Human. The conditions noted are these: neuroblastoma cells. How it is done: as §2, §3
Setting [4] is: all cell lines (C7, KD2, KD3), 24 hours.
[5] abbreviates: all three cell lines (C7, KD2, KD3).
Setting [6] is: G1 and G2 subpopulations, all three cell lines.

As to `CCCC(CCC)C(=O)[O-].[Na+]` [SV, Sodium Valproate], the “apoptosis in p21 positive cells relative to p21 negative cells” value in experiment [1] is “significant reduction of apoptotic fraction”. Moreover, the cell cycle effects entry in experiment [2] (C7 cell line) is given as “slight G2 arrest; also recorded: not seen”; in experiment [2] (KD2 cell line), “G1 inhibition; also recorded: slight G1 inhibitor effect”; in experiment [2] (KD3 cell line), “G1 inhibition; also recorded: slight G1 inhibitor effect”. For the same compound, in the experiment on p21cip1 (G2 sub-population of cells, 1 μM, 24 hours), the p21 protein expression result is “significant upregulation”. Moreover, in the experiment on p21cip1 (setting [4]), the p21 expression result is reported as “modest”.

Turning to `Cc1cc(C2CCCCC2)n(O)c(=O)c1` [CPX, Ciclopirox Olamine], in experiment [1], the “apoptosis in p21 positive cells relative to p21 negative cells” value is given as “significant reduction of apoptotic cells; also recorded: reduced cell death”. Also, the cell cycle effects entry in experiment [2] (setting [5]) is given as “slight G1 cell cycle arrest”. Besides, the p21 expression entry in the experiment with p21cip1 (setting [6]) is listed as “induces significant p21 expression”; in the experiment on p21cip1 (setting [4]), “up-regulates”.

Take `CCN(CC)CCCC(C)Nc1ccnc2cc(Cl)ccc12` (stereo not shown) [Chloroquine diphosphate]: the “apoptosis in p21 positive cells relative to p21 negative cells” value in experiment [1] is reported as “significantly less likely to be apoptotic; also recorded: significantly reduced cell death”. The cell cycle effects entry in experiment [2] (setting [5]) is listed as “no significant effect”; in experiment [2] (all three cell lines (C7, KD2, KD3), listed as chloroquine diphosphate), “no significant cell cycle regulatory effects”. Further, the “proportion of protein positive cells” value with p21cip1 (C7 cells) is “increased proportion”; in the experiment with p21cip1 (KD2 and KD3 cells), “increased”. Besides, the p21 expression result is listed as “significantly increased” in the experiment with p21cip1 (C7 cells, G1 and G2M); “up-regulated” in the experiment on p21cip1 (KD2 cells, G2M phase); “upregulation” with p21cip1 (KD3 cell line, G1); “up-regulates” with p21cip1 (setting [4]). In addition, the “population of positive cells” value in the experiment on p21cip1 (all cell lines) is recorded as “increases”.

For the compound `Nc1ccc(S(=O)(=O)c2ccc(N)cc2)cc1` [Dapsone, 4-Aminophenyl sulfone], the “apoptosis in p21 positive cells relative to p21 negative cells” value in experiment [1] is “significant reduction of apoptotic cells”. In experiment [2] (setting [5]), the cell cycle effects result was “No cell cycle effects”. In the experiment with p21cip1 (setting [4]), the p21 expression entry was “significantly up-regulates”.

Turning to `O=C([O-])CCCc1ccccc1.[Na+]` [4-PBA, Sodium 4-phenylbutyrate], the “apoptosis in p21 positive cells relative to p21 negative cells” value in experiment [1] is recorded as “significantly reduced apoptosis”. Also, the cell cycle effects result in experiment [2] (setting [5]) is “no effects”. Also, the p21 expression result is recorded as “induces; also recorded: relatively small” in the experiment on p21cip1 (G2 cell population, all three cell lines) and “induces” in the experiment on p21cip1 (G2 cell population, all three cell lines, listed as Sodium 4-phenylbutyrate).

For the compound `CC(=O)O[C@H]1C[C@@]2(C)[C@@H](C[C@@H](O)[C@H]3[C@@]4(C)CC[C@@H](O)[C@@H](C)[C@@H]4CC[C@@]32C)/C1=C(\CCC=C(C)C)C(=O)O` [Fusidic acid], the “apoptosis in p21 positive cells relative to p21 negative cells” value in experiment [1] is reported as “reduction of apoptosis”. Further, in experiment [2] (setting [5]), the cell cycle effects entry is listed as “weak G2 inhibitor”. In addition, in the experiment on p21cip1 (setting [4]), the p21 expression result is on record as “significant increase; also recorded: induces significant p21 expression”.

For `CC(C(=O)O)c1ccc(-c2ccccc2)c(F)c1` (racemic) [Flurbiprofen], the apoptotic cell death entry in experiment [3] (0.01 and 0.1 microM) was “reduce apoptosis; also recorded: significantly reduce; also recorded: reduce apoptotic cell death”. In the experiment on p21 (0.01 and 0.1 microM, 24 hours), the p21 expression entry is reported as “significantly increase” and the “p21 expression in the nuclear compartment” value was “significantly increase”. Moreover, the “expression and/or the functional activity of p21” value in the experiment with p21 is recorded as “increased”.

Take `C[C@@H](CN1CC(=O)NC(=O)C1)N1CC(=O)NC(=O)C1` [Dexrazoxane]: the cell death result in experiment [3] was “reduce neuronal cells death; also recorded: significantly reduced cell death”; in experiment [3] (listed as Dexrasoxane), “reduce apoptosis; also recorded: significantly reduced cell death”. Further, the “expression and/or the functional activity of p21” value in the experiment on p21 was “increased”. The p21 expression entry with p21 (up to 200 microM, 24 hours) is on record as “significantly increase”.

Regarding `CN(C)C(=O)C(CCN1CCC(O)(c2ccc(Cl)cc2)CC1)(c1ccccc1)c1ccccc1` [Loperamide, Loperamide hydrochloride], the “apoptosis in p21 positive cells relative to p21 negative cells” value is “significant reduction of apoptosis; also recorded: reduces apoptosis significantly” in experiment [1] (hydrochloride) and “significant reduction of apoptosis” in experiment [1] (listed as Loperamide hydrochloride, hydrochloride). In experiment [2] (all three cell lines (C7, KD2, KD3), hydrochloride), the cell cycle effects entry is “weak G1 inhibitor; also recorded: weak G1 cell cycle arrest”. In addition, the p21 expression entry with p21cip1 (setting [6]) is “induce”; in the experiment on p21cip1 (setting [4]) it was “up-regulates”.
